Read-outs that look alike come from different tables or passages of the source. Non-standard residues stand in square brackets, D forms with d. Residues, ends and D or L forms follow the SMILES beside them. *: point of attachment. Dolaproine = CO[C@@H]([C@@H]1CCCN1)[C@@H](C)C(=O)O; Dil = CC[C@H](C)[C@H](NC)[C@@H](CC(=O)O)OC; X1 = C[C@@H](N*)[C@@H](O)c1ccccc1; NMeV = CN[C@H](C(=O)O)C(C)C
Legend:
MES SA = experiment: Cytotoxicity assay (CellTiter-Glo), MES SA; assay type: cell-based, human; conditions: read-out: Cancer cell lines IC50, MES SA
MES SA DX = experiment: Cytotoxicity assay (CellTiter-Glo), MES SA DX; assay type: cell-based, human; conditions: read-out: Cancer cell lines IC50, MES SA DX
[1] = system: MES SA, MES SA DX, and HEK 293T; experiment: Cytotoxicity (IC50), summary over MES SA, MES SA DX and HEK 293T; assay type: cell-based, human; conditions: read-out: IC50 against all three cell lines (summary of Table 4)
OVCAR-8 = experiment: Cytotoxicity (GI50) assay, OVCAR-8; assay type: cell-based, human
MCF-7 = experiment: Cytotoxicity (GI50) assay, MCF-7; assay type: cell-based, human
NCI/ADR-RES = experiment: Cytotoxicity (GI50) assay, NCI/ADR-RES; assay type: cell-based, human; conditions: Homo sapiens, NCI/ADR-RES, read-out: Cancer cell lines GI50, NCI/ADR-RES
Tubulin = Tubulin assembly induction; assay type: biochemical
human cancer cell lines [2] = experiment: cells; conditions: read-out: GI50, range over the cell lines of Table 3
SNB-75 = experiment: Cytotoxicity (GI50) assay, SNB-75; assay type: cell-based, human
MDA-MB-435 = experiment: Cytotoxicity (GI50) assay, MDA-MB-435; assay type: cell-based, human
human cancer cell lines [3] = system: human cancer cell lines
HEK 293T = experiment: Cytotoxicity assay (CellTiter-Glo), HEK 293T; assay type: cell-based; conditions: Homo sapiens, 72 h, read-out: Cancer cell lines IC50, HEK 293T
[4] = human uterine sarcoma cell line, 72 hours, CellTiter-Glo
[5] = OVCAR-8, human ovarian cancer cell line, read-out: Cancer cell lines GI50, OVCAR-8
[6] = MCF7, human breast cancer cell line, concentration required to decrease cell growth by 50%, read-out: Cancer cell lines GI50, MCF-7
[7] = MES-SA, human uterine sarcoma cell line, 72 hours, CellTiter-Glo
[8] = SNB-75, human glioblastoma cell line, read-out: Cancer cell lines GI50, SNB-75
[9] = highly drug resistant human ovarian cancer cell line
[10] = Homo sapiens, MES SA cell line with marked multidrug resistance, 72 hours, CellTiter-Glo
[11] = MDA-MB-435, human melanoma cell line, read-out: Cancer cell lines GI50, MDA-MB-435
[12] = Homo sapiens, OVCAR-8, read-out: Cancer cell lines GI50, OVCAR-8
[13] = Homo sapiens, MCF7, read-out: Cancer cell lines GI50, MCF-7
[14] = Homo sapiens, SNB-75, read-out: Cancer cell lines GI50, SNB-75
[15] = Homo sapiens, MDA-MB-435, read-out: Cancer cell lines GI50, MDA-MB-435

Molecule	GI50 (OVCAR-8; [5]) [nM]	GI50 (MCF-7; [6]) [nM]	GI50 (NCI/ADR-RES) [nM]	IC50 (MES SA; [7]) [nM]	IC50 (MES SA DX; Homo sapiens, MES-SA, 72 h) [nM]	EC50 (Tubulin; […]) [µM]	GI50 (OVCAR-8; [12]) [nM]	GI50 (MCF-7; [13]) [nM]	GI50 (SNB-75; [14]) [nM]	IC50 (MES SA; Homo sapiens, MES-SA, 72 h) [nM]	GI50 (MDA-MB-435; [15]) [nM]	IC50 (HEK 293T) [nM]	other results
CC[C@H](C)[C@@H]([C@@H](CC(=O)N1CCC[C@H]1[C@H](OC)[C@@H](C)C(=O)N[C@H](C)[C@@H](O)c1ccccc1)OC)N(C)C(=O)[C@@H](NC(=O)[C@@H](NC)C(C)C)C(C)C [MMAE, monomethyl auristatin E, reference compound] (H-[NMeV]V[Dil][Dolaproine]-X1)	–	–	–	–	–	–	–	–	–	–	–	–	IC50 (MES SA; [4]): 0.096 nM; IC50 (MES SA DX): 88.2 nM; IC50 [1]: ≥ 0.068 nM
CSc1cc(/C=C(\C)[C@@H]2C/C=C(/C)CCC[C@H](C)[C@H](O)[C@@H](C)C(=O)C(C)(C)[C@@H](O)CC(=O)O2)nn1C [compound 73, (4S,7R,8S,9S,13Z,16S)-4,8-Dihydroxy-5,5,7,9,13-pentamethyl-16-{(1E)-1-[1-methyl-5-(methylsulfanyl)-1H-pyrazol-3-yl]prop-1-en-2-yl}oxacyclohexadec-13-ene-2,6-dione]	22	5	52	24.1	39.2	–	–	–	–	–	–	–	EC50 (Tubulin): 9.3 µM; IC50 ([1]; Homo sapiens): 0.17 to 39.2 nM; GI50 (human cancer cell lines [2]): 5 to 52 nM
CC(=O)O[C@H]1C(=O)[C@@]2(C)[C@H]([C@H](OC(=O)c3ccccc3)[C@]3(O)C[C@H](OC(=O)[C@H](O)[C@@H](NC(=O)c4ccccc4)c4ccccc4)C(C)=C1C3(C)C)[C@]1(OC(C)=O)CO[C@@H]1C[C@@H]2O [paclitaxel, reference compound]	26	7.8	–	2.47	–	15	–	–	–	–	–	–	GI50 (SNB-75; [8]): 15 nM; GI50 (NCI/ADR-RES; [9]): 4800 nM; IC50 (MES SA DX; [10]): > 400 nM; GI50 (MDA-MB-435; [11]): 5 nM; IC50 ([1]; Homo sapiens): ≥ 1.76 nM
N-acetyl calicheamicin γ1^1 [NAC, reference compound]	–	–	–	–	–	–	–	–	–	–	–	–	IC50 (MES SA; [4]): 0.364 nM; IC50 (MES SA DX): 15.3 nM; IC50 [1]: ≥ 0.166 nM
CC(=O)[C@@H]1C[C@@H]2N(CCO)[C@]2(C)CCC[C@H](C)[C@H](O)[C@@H](C)C(=O)C(C)(C)[C@@H](O)CC(=O)O1 (stereo partly drawn) [compound 81, (1S,3S,7S,10R,11S,12S,16R)-3-Acetyl-7,11-dihydroxy-17-(2-hydroxyethyl)-8,8,10,12,16-penta-methyl-4-oxa-17-azabicyclo[14.1.0]heptadecane-5,9-dione]	550	580	–	36.1	–	> 60	–	–	–	–	–	–	cytotoxicity (in words) (human cancer cell lines [3]): significant cytotoxicity; GI50 (SNB-75; [8]): 360 nM; GI50 (NCI/ADR-RES; [9]): > 5000 nM; IC50 (MES SA DX; [10]): > 400 nM; GI50 (MDA-MB-435; [11]): 200 nM
CSc1nc(/C=C(\C)[C@@H]2C[C@@H]3N(CCS)[C@]3(C)CCC[C@H](C)[C@H](O)[C@@H](C)C(=O)C(C)(C)[C@@H](O)CC(=O)O2)cs1 (stereo partly drawn) [compound 35, (1S,3S,7S,10R,11S,12S,16R)-7,11-Dihydroxy-8,8,10,12,16-pentamethyl-3-{(1E)-1-[2-(methyl-sulfanyl)-1,3-thiazol-4-yl]prop-1-en-2-yl}-17-(2-sulfanylethyl)-4-oxa-17-azabicyclo[14.1.0]-heptadecane-5,9-dione]	–	–	30	–	17	> 60	19	39	32	1.48	5.5	0.34	–
CC(=O)OCCN1[C@H]2C[C@@H](/C(C)=C/c3ccn(Cn4cccn4)n3)OC(=O)C[C@H](O)C(C)(C)C(=O)[C@H](C)[C@@H](O)[C@@H](C)CCC[C@]21C (stereo partly drawn) [compound 26, 2-[(1S,3S,7S,10R,11S,12S,16R)-7,11-Dihydroxy-8,8,10,12,16-pentamethyl-5,9-dioxo-3-{(1E)-1-[1-(1H-pyrazol-1-ylmethyl)-1H-pyrazol-3-yl]prop-1-en-2-yl}-4-oxa-17-azabicyclo[14.1.0]heptadec-17-yl]ethyl acetate]	–	–	2700	–	> 400	40	38	38	50	5.9	5.5	1.72	–
C/C(=C\c1cnsn1)[C@@H]1C[C@@H]2N(CCO)[C@]2(C)CCC[C@H](C)[C@H](O)[C@@H](C)C(=O)C(C)(C)[C@@H](O)CC(=O)O1 (stereo partly drawn) [compound 28, (1S,3S,7S,10R,11S,12S,16R)-7,11-Dihydroxy-17-(2-hydroxyethyl)-8,8,10,12,16-pentamethyl-3-[(1E)-1-(1,2,5-thiadiazol-3-yl)prop-1-en-2-yl]-4-oxa-17-azabicyclo[14.1.0]heptadecane-5,9-dione]	–	–	680	–	264	39	9	4.5	8	4.58	3	1.93	–
CSc1cc(/C=C(\C)[C@@H]2C[C@@H]3N[C@]3(C)CCC[C@H](C)[C@H](O)[C@@H](C)C(=O)C(C)(C)[C@@H](O)CC(=O)O2)nn1C [compound 40, (1S,3S,7S,10R,11S,12S,16R)-7,11-Dihydroxy-8,8,10,12,16-pentamethyl-3-{(1E)-1-[1-methyl-5-(methylsulfanyl)-1H-pyrazol-3-yl]prop-1-en-2-yl}-4-oxa-17-azabicyclo[14.1.0]heptadecane-5,9-dione]	–	–	140	–	41.6	19	100	3.5	14	0.36	3.5	0.59	–

Reference: patent publication US20210238187A1, “AZIRIDINE CONTAINING EPOTHILONE ANALOGS, METHODS OF SYNTHESIS, METHODS OF TREATMENT, AND DRUG CONJUGATES” (WILLIAM MARSH RICE UNIVERSITY, priority 2017, published 2021)
